Test results taken from patent US4791139A, “Diphenyl ether derivatives and their use as insecticides” (Imperial Chemical Industries PLC, priority 1986, dated 1988).

Tests used:
Assay type in all cases: in vivo
[1] = system: Diabrotica balteata (rootworm larvae); experiment: Residual test, rootworm larvae (DB), Filter paper/maize seed; conditions: 72 h, 500 ppm, 3 days, read-out: DB grading of mortality
Outline: (§1)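 Mortality scored 1–7 days post-treatment. Test liquids at 100–500 ppm (acetone stock diluted into water + 0.1% w/w wetting agent) applied to pests, their plant/food medium, or both.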

[2] = system: carp; experiment: Mortality to carp; conditions: after 48 hours at 10 parts per million
Source text: The compounds according to formula I and compositions comprising them have shown themselves to be particularly useful in controlling pests of maize and rice such as Chilo (stem borers), Nilaparvata and Nephotettix (plant hoppers) as well as lepidopteran pests of cotton, for example Heliothis spp. This activity is combined with a low level of hazard to aquatic organisms, eg. fish, which renders the compounds particularly suitable for use in aquatic environments, such as for the control of insect pests of paddy rice and for the control of larvae of insect vectors of disease, for example mosquitos. Thus, for example, compound 2 in Table I caused no mortality to carp after 48 hours at a concentration of 10 parts per million. […] (spider mites).

[3] = system: Nilaparvata lugens (brown plant hopper - nymphs); experiment: Contact test, brown plant hopper - nymphs (NL), Rice plant; conditions: 72 h, 500 ppm, 3 days, read-out: NL grading of mortality
Outline: as §1

[4] = system: Blattella germanica (cockroach nymphs); experiment: Residual test, cockroach nymphs (BG), Plastic pot; conditions: 72 h, 500 ppm, 3 days, read-out: BG grading of mortality
Outline: as §1

[5] = system: Musca domestica (houseflies - adults); experiment: Knockdown test, houseflies - adults (MD/KD), Cotton wool/sugar; conditions: 500 ppm, 4 hours, read-out: MD/KD grading of knockdown
Outline: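 Product was dissolved in acetone and diluted with water containing 0.1% wetting agent to 100–500 ppm. The flies and/or their food medium were treated with the preparation. Mortality was scored 1–7 days after treatment, with an additional knockdown assessment for houseflies.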

[6] = system: Meloidogyne incognita (Tomato root knot eelworm - larvae); experiment: Residual test, Tomato root knot eelworm - larvae (MI), Semi in-vitro; conditions: 168 h, rate column 500 ppm, application rate is half that recorded, 7 days, read-out: MI grading of mortality
[7] = system: Chilo partellus (Maize stemborer - larvae); experiment: Residual test, Maize stemborer - larvae (CP), Oilseed rape; conditions: 72 h, 500 ppm, 3 days, read-out: CP grading of mortality
Procedure: (§2) The activity of the Product was determined using a variety of insect pests. The Product was used in the form of liquid preparations containing from 100 to 500 parts per million (ppm) by weight of the Product. The preparations were made by dissolving the Product in acetone and diluting the solutions with water containing 0.1% by weight of a wetting agent sold under the trade name "SYNPERONIC" NX until the liquid preparations contained the required concentration of the Product. "SYNPERONIC" is a Registered Trade Mark.
(§3) The test procedure adopted with regard to each pest was basically the same and comprised supporting a number of the pests on a medium which was usually a host plant or a foodstuff on which the pests feed, and treating either or both the pests and the medium with the preparations. The mortality of the pests was then assessed at periods usually varying from one to seven days after the treatment.
(§4) The results of the tests are given in Table III for each of the Products, at the rate in parts per million given in the second column as a grading of mortality designated as A, B or C wherein A indicates 80-100% mortality or knockdown (70-100% for Meloidogyne incognita), B indicates 50-79% mortality knockdown or knockdown (50-69% for Meloidogyne incognita) and C indicates less than 50% mortality or knockdown.
In Table III the pest organism used is designated by a letter code and the pests species, the support medium or food, and the type and duration of test is given in Table II.
(Maize stemborer - larvae)

[8] = system: Heliothis virescens (tobacco budworm - larvae); experiment: Residual test, tobacco budworm - larvae (HV), Cotton leaf; conditions: 72 h, read-out: HV grading of mortality
Outline: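 Products applied as acetone solutions diluted in water with 0.1% wetting agent, at 100–500 ppm; pests on host plant or food, with pests and/or medium treated. Mortality or knockdown scored 1–7 days after treatment and graded A (80–100%), B (50–79%) or C (<50%).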

[9] = system: Myzus persicae (aphids); experiment: Contact test, aphids (MP), Chinese Cabbage leaf; conditions: 72 h, 500 ppm, 3 days, read-out: MP grading of mortality
Outline: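 Aphids on a host plant and/or the plant itself were treated with 100–500 ppm of product, applied from acetone diluted in water containing 0.1% SYNPERONIC NX wetting agent. Mortality was scored usually one to seven days after treatment.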

[10] = system: Musca domestica (houseflies - adults); experiment: Contact test, houseflies - adults (MD), Cotton wool/sugar; conditions: 24 h, 500 ppm, 1 day, read-out: MD grading of mortality
Outline: as §1

[11] = system: Tetranychus urticae (spider mites - adult); experiment: Contact test, spider mites - adult (TUa), French bean leaf; conditions: 72 h, 500 ppm, 3 days, read-out: TUA grading of mortality
Outline: as §1

[12] = system: Nephotettix cincticeps; experiment: Contact test, leaf hopper in place of Nilaparvata lugens (NL**), Rice plant; conditions: 72 h, 500 ppm, 3 days, read-out: NL** grading of mortality (Nephotettix cincticeps)
Procedure: as §2, §3
as §4, with “knockdown. […]” for “knockdown.”

[13] = system: Spodoptera exigua (lesser army worm - larvae); experiment: Residual test, lesser army worm - larvae (SP), Cotton leaf; conditions: 72 h, 500 ppm, 3 days, read-out: SP grading of mortality
Outline: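 Compound dissolved in acetone and diluted in water with 0.1% Synperonic NX wetting agent to 100–500 ppm. Pests on host plant or food, with pests and/or medium treated. Mortality assessed 1–7 days after treatment and graded A (80–100%), B (50–79%) or C (<50%).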

| SMILES | mortality at 500 ppm [1] [%] | mortality to carp [2] | mortality at 500 ppm [3] [%] | mortality at 500 ppm [4] [%] | pest or weed control at 500 ppm [5] [%] | mortality at 250 µg/mL [6] [%] | mortality at 500 ppm [7] [%] | mortality at 500 ppm [8] [%] | mortality at 500 ppm [9] [%] | mortality at 500 ppm [10] [%] | mortality at 500 ppm [11] [%] | mortality at 500 ppm [12] [%] | mortality at 500 ppm [13] [%] |
| --- | --- | --- | --- | --- | --- | --- | --- | --- | --- | --- | --- | --- | --- |
| CCOc1ccc(C(CCCc2cccc(Oc3ccccc3)c2)C(F)(F)F)cc1 (racemic) [Compound 2, 2-(4-ethoxyphenyl)-5-(3-phenoxyphenyl)-1,1,1-trifluoropentane] | 80 to 100 | no mortality | 80 to 100 | 80 to 100 | 80 to 100 | < 50 | 80 to 100 | 80 to 100 | 80 to 100 | 80 to 100 | – | – | – |
| Fc1ccc(CCC=C(c2ccc(OC(F)(F)F)cc2)C(F)F)cc1Oc1ccccc1 [Compound 26, 1,1-Difluoro-2-(4-trifluoromethoxyphenyl)-5-(4-fluoro-3-phenoxyphenyl)pent-2-ene] | 50 to 79 | – | – | 80 to 100 | 80 to 100 | – | – | 80 to 100 | 80 to 100 | 80 to 100 | 80 to 100 | 80 to 100 | 80 to 100 |
